Experimental data: PMC7265341, “Quantifying CDK inhibitor selectivity in live cells” (Nature Communications, 2020)
Like-named read-outs stand apart in the source and are kept apart here.

Assays:
Assay type in all cases: binding
[1] = molecular target: CDK1/Cyclin E1 (Homo sapiens, UniProt P06493); assay: NanoBRET live-cell target engagement, CDK1-NanoLuc/Cyclin E1 in HEK-293; conditions: for inhibition at 10 µM: read-out: CDK1/E1 Inhibition at 10µM (%)
[2] = molecular target: CDK2/Cyclin E1 (Homo sapiens, UniProt P24941); assay: NanoBRET live-cell target engagement, CDK2-NanoLuc/Cyclin E1 in HEK-293; conditions: 10µM, read-out: CDK2/E1 Inhibition at 10µM (%)
[3] = molecular target: CDK3/Cyclin E1 (Homo sapiens, UniProt Q00526); assay: NanoBRET live-cell target engagement, CDK3-NanoLuc/Cyclin E1 in HEK-293; conditions: for inhibition at 10 µM: read-out: CDK3/E1 Inhibition at 10µM (%); for IC50: read-out: CDK3/E1 IC50
CDK3/Cyclin E1, sequence (Q00526 whole entry): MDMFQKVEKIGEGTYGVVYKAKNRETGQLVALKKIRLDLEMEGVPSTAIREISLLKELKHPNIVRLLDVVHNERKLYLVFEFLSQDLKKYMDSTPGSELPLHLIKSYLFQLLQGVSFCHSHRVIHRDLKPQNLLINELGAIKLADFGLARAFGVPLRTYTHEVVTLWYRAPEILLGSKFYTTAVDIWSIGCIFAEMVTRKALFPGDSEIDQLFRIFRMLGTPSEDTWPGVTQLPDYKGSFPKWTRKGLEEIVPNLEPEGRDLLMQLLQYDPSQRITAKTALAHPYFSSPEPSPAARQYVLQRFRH
CDK3/Cyclin E1, sequence (P24864 whole entry partner): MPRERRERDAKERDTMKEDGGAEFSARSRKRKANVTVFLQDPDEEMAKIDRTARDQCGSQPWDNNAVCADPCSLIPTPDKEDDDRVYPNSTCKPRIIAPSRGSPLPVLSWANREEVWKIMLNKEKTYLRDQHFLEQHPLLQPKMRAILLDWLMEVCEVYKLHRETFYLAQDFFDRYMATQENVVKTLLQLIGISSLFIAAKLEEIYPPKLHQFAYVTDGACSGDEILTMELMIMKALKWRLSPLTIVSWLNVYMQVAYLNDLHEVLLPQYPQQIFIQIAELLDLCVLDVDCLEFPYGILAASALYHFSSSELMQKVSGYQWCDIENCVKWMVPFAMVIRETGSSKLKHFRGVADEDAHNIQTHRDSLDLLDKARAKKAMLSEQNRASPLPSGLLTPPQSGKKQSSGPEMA

[4] = molecular target: CDK4/Cyclin D1 (Homo sapiens, UniProt P11802); assay: NanoBRET live-cell target engagement, NanoLuc-CDK4/Cyclin D1 in HEK-293; conditions: for inhibition at 10 µM: read-out: CDK4/D1 Inhibition at 10µM (%)
CDK4/Cyclin D1, sequence (P11802 whole entry): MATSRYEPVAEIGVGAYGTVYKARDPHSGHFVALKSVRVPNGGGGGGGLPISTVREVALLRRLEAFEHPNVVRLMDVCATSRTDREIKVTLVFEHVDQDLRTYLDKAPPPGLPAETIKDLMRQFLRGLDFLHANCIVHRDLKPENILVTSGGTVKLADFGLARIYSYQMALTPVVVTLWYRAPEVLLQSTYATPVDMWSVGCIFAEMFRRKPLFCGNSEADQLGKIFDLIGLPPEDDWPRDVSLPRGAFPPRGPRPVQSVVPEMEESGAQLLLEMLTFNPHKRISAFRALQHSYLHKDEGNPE
CDK4/Cyclin D1, sequence (P24385 whole entry partner): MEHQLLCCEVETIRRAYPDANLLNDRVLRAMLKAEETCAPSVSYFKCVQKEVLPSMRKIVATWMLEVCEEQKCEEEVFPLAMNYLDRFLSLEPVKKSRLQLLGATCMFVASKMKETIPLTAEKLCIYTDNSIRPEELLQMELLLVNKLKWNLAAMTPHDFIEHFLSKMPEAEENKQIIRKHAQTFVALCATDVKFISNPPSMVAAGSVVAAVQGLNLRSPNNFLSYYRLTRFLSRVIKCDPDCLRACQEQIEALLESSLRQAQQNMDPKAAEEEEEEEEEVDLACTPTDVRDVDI

[5] = molecular target: CDK5/CDK5R1 (Homo sapiens, UniProt Q00535); assay: NanoBRET live-cell target engagement, CDK5-NanoLuc/CDK5R1 in HEK-293; conditions: for inhibition at 10 µM: read-out: CDK5/CDK5R1 Inhibition at 10µM (%)
CDK5/CDK5R1, sequence (Q00535 whole entry): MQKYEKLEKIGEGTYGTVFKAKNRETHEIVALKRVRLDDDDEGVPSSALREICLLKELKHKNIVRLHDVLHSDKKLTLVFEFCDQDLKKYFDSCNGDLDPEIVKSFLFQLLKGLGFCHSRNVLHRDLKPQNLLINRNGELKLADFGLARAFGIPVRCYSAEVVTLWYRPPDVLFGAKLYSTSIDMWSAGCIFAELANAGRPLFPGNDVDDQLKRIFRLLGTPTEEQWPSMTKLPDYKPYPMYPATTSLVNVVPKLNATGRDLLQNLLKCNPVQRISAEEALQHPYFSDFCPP
CDK5/CDK5R1, sequence (Q15078 whole entry partner): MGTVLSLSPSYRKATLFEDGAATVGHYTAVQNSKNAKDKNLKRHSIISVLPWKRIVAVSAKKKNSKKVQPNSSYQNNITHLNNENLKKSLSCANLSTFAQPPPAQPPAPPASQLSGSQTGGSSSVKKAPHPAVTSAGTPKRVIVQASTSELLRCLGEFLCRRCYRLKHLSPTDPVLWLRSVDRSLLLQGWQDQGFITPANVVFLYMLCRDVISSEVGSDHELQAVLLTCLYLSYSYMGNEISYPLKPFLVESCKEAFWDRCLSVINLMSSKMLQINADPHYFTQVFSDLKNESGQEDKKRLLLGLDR

[6] = molecular target: CDK6/Cyclin D1 (Homo sapiens, UniProt Q00534); assay: NanoBRET live-cell target engagement, NanoLuc-CDK6/Cyclin D1 in HEK-293; conditions: for inhibition at 10 µM: read-out: CDK6/D1 Inhibition at 10µM (%); for IC50: read-out: CDK6/D1 IC50
CDK6/Cyclin D1, sequence (Q00534 whole entry): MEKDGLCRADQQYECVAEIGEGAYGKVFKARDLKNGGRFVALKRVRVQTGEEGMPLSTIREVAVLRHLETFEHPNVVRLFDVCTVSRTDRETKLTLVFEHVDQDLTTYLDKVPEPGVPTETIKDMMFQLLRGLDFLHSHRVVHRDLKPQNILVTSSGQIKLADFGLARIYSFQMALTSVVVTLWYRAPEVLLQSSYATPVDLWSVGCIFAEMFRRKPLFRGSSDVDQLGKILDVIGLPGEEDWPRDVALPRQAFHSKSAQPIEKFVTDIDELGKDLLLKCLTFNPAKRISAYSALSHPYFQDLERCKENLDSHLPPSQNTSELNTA
CDK6/Cyclin D1, sequence (P24385 whole entry partner): as the sequence (P24385 whole entry partner) above

[7] = molecular target: CDK7 (Homo sapiens, UniProt P50613); assay: NanoBRET live-cell target engagement, NanoLuc-CDK7 in HEK-293; conditions: for inhibition at 10 µM: read-out: CDK7 Inhibition at 10µM (%); for IC50: read-out: CDK7 IC50
CDK7, sequence (P50613 whole entry): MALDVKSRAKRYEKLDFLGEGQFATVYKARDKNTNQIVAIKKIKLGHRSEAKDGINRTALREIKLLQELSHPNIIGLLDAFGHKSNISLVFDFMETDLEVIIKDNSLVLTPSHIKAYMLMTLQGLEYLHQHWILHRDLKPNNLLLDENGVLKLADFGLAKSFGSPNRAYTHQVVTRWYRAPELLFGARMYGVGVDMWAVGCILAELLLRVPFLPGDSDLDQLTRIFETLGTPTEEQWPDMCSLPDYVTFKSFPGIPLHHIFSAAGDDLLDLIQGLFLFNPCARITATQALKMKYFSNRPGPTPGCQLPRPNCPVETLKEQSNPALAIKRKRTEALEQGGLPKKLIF

[8] = molecular target: CDK8/Cyclin C (Homo sapiens, UniProt P49336); assay: NanoBRET live-cell target engagement, NanoLuc-CDK8/Cyclin C in HEK-293; conditions: 10µM, read-out: CDK8/C Inhibition at 10µM (%)
CDK8/Cyclin C, sequence (P49336 whole entry): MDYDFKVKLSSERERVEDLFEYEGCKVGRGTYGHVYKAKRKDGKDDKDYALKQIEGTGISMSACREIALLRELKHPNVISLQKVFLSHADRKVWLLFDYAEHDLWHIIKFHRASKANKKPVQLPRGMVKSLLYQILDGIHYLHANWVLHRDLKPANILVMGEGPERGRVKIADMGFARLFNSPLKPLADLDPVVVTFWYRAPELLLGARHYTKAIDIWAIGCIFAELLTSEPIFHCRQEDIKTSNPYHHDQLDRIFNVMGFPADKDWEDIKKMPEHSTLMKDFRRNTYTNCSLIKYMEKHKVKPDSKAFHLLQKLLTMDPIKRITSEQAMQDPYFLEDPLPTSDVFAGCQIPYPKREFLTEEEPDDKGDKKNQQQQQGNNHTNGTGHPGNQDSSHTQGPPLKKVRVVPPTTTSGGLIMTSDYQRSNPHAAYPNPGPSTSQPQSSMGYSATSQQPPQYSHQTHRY
CDK8/Cyclin C, sequence (P24863 whole entry partner): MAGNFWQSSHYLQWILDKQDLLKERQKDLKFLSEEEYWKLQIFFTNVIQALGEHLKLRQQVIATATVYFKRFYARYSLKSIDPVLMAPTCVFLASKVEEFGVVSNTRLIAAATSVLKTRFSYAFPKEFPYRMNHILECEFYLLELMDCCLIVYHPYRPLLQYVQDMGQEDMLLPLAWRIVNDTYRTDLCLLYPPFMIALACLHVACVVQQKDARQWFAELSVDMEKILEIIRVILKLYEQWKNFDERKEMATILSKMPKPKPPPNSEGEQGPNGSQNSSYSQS

[9] = molecular target: CDK9/Cyclin K (Homo sapiens, UniProt P50750); assay: NanoBRET live-cell target engagement, NanoLuc-CDK9/Cyclin K in HEK-293; conditions: 10µM, read-out: CDK9/K Inhibition at 10µM (%)
CDK9/Cyclin K, sequence (P50750 whole entry): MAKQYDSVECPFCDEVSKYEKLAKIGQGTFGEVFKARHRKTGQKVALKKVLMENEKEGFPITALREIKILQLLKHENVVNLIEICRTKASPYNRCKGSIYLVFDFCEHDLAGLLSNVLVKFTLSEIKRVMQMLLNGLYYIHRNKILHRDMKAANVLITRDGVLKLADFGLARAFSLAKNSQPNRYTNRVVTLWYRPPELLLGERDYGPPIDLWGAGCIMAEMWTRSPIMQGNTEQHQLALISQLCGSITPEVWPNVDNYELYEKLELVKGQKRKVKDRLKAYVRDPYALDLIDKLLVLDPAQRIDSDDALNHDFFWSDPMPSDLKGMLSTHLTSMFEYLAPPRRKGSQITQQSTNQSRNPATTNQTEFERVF
CDK9/Cyclin K, sequence (O75909 whole entry partner): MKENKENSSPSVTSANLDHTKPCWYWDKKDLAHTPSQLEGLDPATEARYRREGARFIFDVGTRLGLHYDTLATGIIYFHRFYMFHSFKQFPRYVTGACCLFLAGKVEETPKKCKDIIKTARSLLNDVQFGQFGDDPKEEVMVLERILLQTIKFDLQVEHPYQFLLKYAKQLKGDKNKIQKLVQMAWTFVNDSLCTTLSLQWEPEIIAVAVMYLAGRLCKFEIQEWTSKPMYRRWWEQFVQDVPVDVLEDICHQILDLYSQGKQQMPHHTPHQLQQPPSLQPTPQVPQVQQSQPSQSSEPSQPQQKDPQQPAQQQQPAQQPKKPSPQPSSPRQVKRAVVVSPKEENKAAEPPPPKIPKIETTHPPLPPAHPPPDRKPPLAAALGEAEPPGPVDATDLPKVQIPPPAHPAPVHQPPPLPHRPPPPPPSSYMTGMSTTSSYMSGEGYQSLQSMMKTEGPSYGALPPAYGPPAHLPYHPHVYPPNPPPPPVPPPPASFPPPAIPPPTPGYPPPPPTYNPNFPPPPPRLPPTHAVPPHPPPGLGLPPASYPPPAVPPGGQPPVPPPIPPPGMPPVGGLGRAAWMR

[10] = molecular target: T1, CDK11A/Cyclin L2 (Homo sapiens, UniProt Q9UQ88); assay: NanoBRET live-cell target engagement, CDK11A-NanoLuc/Cyclin L2 in HEK-293; conditions: 10µM; average of experiments; read-out: CDK11a/L2 Inhibition at 10µM (%)
T1 sequence (Q9UQ88 1-783): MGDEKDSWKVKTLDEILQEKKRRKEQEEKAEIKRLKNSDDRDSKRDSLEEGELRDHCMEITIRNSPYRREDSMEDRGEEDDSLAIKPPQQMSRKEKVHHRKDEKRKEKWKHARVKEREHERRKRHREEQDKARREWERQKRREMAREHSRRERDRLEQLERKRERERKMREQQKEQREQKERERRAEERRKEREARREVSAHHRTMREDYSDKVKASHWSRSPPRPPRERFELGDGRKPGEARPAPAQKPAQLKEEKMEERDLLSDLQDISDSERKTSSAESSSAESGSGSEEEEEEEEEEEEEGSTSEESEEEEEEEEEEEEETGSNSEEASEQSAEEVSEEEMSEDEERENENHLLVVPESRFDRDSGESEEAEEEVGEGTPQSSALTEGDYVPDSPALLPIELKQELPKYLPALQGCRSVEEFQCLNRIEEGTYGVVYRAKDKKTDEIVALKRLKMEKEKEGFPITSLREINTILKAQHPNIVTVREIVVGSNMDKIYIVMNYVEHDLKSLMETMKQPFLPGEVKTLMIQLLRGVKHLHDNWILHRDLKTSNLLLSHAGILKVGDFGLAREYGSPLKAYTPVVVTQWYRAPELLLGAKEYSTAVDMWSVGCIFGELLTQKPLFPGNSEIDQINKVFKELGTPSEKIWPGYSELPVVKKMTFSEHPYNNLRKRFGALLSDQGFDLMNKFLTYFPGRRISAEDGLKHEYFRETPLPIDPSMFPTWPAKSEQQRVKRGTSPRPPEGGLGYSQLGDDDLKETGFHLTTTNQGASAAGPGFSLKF

CDK1/Cyclin E1, sequence (P06493 whole entry): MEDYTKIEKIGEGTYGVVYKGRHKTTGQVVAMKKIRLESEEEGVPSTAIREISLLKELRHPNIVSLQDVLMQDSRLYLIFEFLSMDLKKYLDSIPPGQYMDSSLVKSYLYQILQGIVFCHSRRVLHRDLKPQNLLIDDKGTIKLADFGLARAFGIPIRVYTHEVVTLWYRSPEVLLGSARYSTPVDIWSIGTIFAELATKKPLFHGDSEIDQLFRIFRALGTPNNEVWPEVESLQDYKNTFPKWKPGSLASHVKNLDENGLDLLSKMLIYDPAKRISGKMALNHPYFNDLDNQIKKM
CDK1/Cyclin E1, sequence (P24864 whole entry partner): as the sequence (P24864 whole entry partner) above

CN1C/C=C/CCOc2cccc(c2)-c2ccnc(n2)Nc2cccc(c2)C1 [SB1317]
inhibition at 10 µM ([1]; average of experiments): 95.4% | inhibition at 10 µM ([1]; independent experiment 1): 95% | inhibition at 10 µM ([1]; independent experiment 2): 95.8% | IC50 ([1]; average (± SEM where n=3), read-out: CDK1/E1 IC50): 200 nM | IC50 ([1]; independent experiment 1, read-out: CDK1/E1 IC50): 200 nM | IC50 ([1]; independent experiment 2, read-out: CDK1/E1 IC50): 210 nM | IC50 ([1]; live HEK-293, 2 h, mean ± S.E.M. (n=3) or mean (n=2), read-out: IC50 for CDK/cyclin complexes, CDK1/E1): 200 nM | inhibition at 10 µM ([2]; average of experiments): 96.5% | inhibition at 10 µM ([2]; independent experiment 1): 98% | inhibition at 10 µM ([2]; independent experiment 2): 95% | inhibition at 10 µM ([3]; average of experiments): 97.1% | inhibition at 10 µM ([3]; independent experiment 1): 98.4% | inhibition at 10 µM ([3]; independent experiment 2): 95.9% | IC50 ([3]; average (± SEM where n=3)): 44 nM | IC50 ([3]; independent experiment 1): 45 nM | IC50 ([3]; independent experiment 2): 43 nM | inhibition at 10 µM ([4]; average of experiments): 99.8% | inhibition at 10 µM ([4]; independent experiment 1): 100% | inhibition at 10 µM ([4]; independent experiment 2): 99.2% | IC50 ([4]; average (± SEM where n=3), read-out: CDK4/D1 IC50): 140 nM | IC50 ([4]; independent experiment 1, read-out: CDK4/D1 IC50): 140 nM | IC50 ([4]; independent experiment 2, read-out: CDK4/D1 IC50): 150 nM | IC50 ([4]; live HEK-293, 2 h, mean ± S.E.M. (n=3) or mean (n=2), read-out: IC50 for CDK/cyclin complexes, CDK4/D1): 140 nM | inhibition at 10 µM ([5]; average of experiments): 93.3% | inhibition at 10 µM ([5]; independent experiment 1): 88.5% | inhibition at 10 µM ([5]; independent experiment 2): 98.1% | IC50 ([5]; average (± SEM where n=3), read-out: CDK5/CDK5R1 IC50): 180 nM | IC50 ([5]; independent experiment 1, read-out: CDK5/CDK5R1 IC50): 190 nM | IC50 ([5]; independent experiment 2, read-out: CDK5/CDK5R1 IC50): 180 nM | IC50 ([5]; live HEK-293, 2 h, mean ± S.E.M. (n=3) or mean (n=2), read-out: IC50 for CDK/cyclin complexes, CDK5/R1): 180 nM | inhibition at 10 µM ([6]; average of experiments): 98.3% | inhibition at 10 µM ([6]; independent experiment 1): 97.3% | inhibition at 10 µM ([6]; independent experiment 2): 99.2% | IC50 ([6]; average (± SEM where n=3)): 270 nM | IC50 ([6]; independent experiment 1): 290 nM | IC50 ([6]; independent experiment 2): 250 nM | inhibition at 10 µM ([7]; average of experiments): 96.4% | inhibition at 10 µM ([7]; independent experiment 1): 97.5% | inhibition at 10 µM ([7]; independent experiment 2): 95.3% | IC50 ([7]; average (± SEM where n=3)): 10 nM | IC50 ([7]; independent experiment 1): 11 nM | IC50 ([7]; independent experiment 2): 8.8 nM | inhibition at 10 µM ([8]; average of experiments): 72.3% | inhibition at 10 µM ([8]; independent experiment 1): 57.3% | inhibition at 10 µM ([8]; independent experiment 2): 87.3% | inhibition at 10 µM ([9]; average of experiments): 99.7% | inhibition at 10 µM ([9]; independent experiment 1): 100% | inhibition at 10 µM ([9]; independent experiment 2): 99.2% | inhibition at 10 µM [10]: 95.6%
